Assay results as given in patent publication US20210395327A1, “Growth Hormone-Releasing Hormone Antagonists and Uses Thereof” (United States Government As Represented By The Department …, priority 2019, published 2021).
pIC50: −log10 of the molar value. Entries after “also recorded” stand apart in the source; their conditions may differ. Read-outs that look alike come from different tables or passages of the source. Non-standard residues stand in square brackets, D forms with d. Residues, ends and D or L forms follow the SMILES beside them. *: point of attachment. Phenylacetyl(2,3,4,5,6-F5) = O=C(Cc1c(F)c(F)c(F)c(F)c1F)*; Phe(F5) = N[C@@H](Cc1c(F)c(F)c(F)c(F)c1F)C(=O)O; Phe(4-Cl) = N[C@@H](Cc1ccc(Cl)cc1)C(=O)O; hArg = N=C(N)NCCCC[C@H](N)C(=O)O; 12Ado = NCCCCCCCCCCCC(=O)O; Nle = CCCC[C@H](N)C(=O)O; Orn = NCCC[C@H](N)C(=O)O; Abu = CC[C@H](N)C(=O)O; PhAc = O=C(Cc1ccccc1)*; Aoc = NCCCCCCCC(=O)O

Tests used:
[1] = tested on: KATOIII stomach cancer cells; test: In vitro cell viability, KATOIII; assay type: cell-based, human; details: antagonist 5 μM for 72 h, cell proliferation assay; MIA602 = 1
Procedure: (§1) The inhibitory effects of the various synthesized GHRH antagonists were tested in cell proliferation assays in various human cancer cell lines including stomach cancer (KATOIII, N87), colon cancer (HT-29), urothelial cancer (J82, RT4), pancreatic cancer (PANC-1, CFPAC-1), prostatic cancer (PC3), breast cancer (MX-1, HCC1806), ovarian cancer (SK-OV-3, OVCAR-3) and lung cancer (HCC827, H460).
(§2) Cell culture. Human cancer cell lines including pancreatic (PANC-1 and CFPAC-1), lung (HCC827 and H460), stomach (NCI-N87 and KATOIII), urothelial (J82, RT4), prostatic (PC3), breast (MX-1 and HCC 1806), colorectal (HT-29), and ovarian (SK-OV-3 and OVCAR-3) were obtained from the American Type Culture Collection (ATCC) and cultured at 37° C. in a humidified 95% air/5% CO2 atmosphere in the medium recommended by ATCC.
(§3) In vitro cell viability. Cell viability was analyzed as follows: cancer cells including pancreatic (PANC-1 and CFPAC-1), lung (HCC827 and H460), stomach (NCI-N87 and KATOIII), urothelial (J82, RT4), prostatic (PC3) and breast (MX-1 and HCC 1806), colorectal (HT-29) and ovarian (SK-OV-3 and OVCAR-3) were grown on 96 well plates to ˜60% confluence, the cells were starved for 24 h in culture medium containing 0.5% FBS. Cells were then treated with GHRH antagonists MIA602 AVR compounds at concentrations of 1, 2.5 or 5 μM, or vehicle (0.1% DMSO) in quintuplicates for 72 hours. The medium was replaced every 48 hours. Cell viability was measured using CellTiter 96 aqueous one solution kit (Promega). Inhibitory effects of tested AVR compounds in comparison to that of MIA602 are presented as inhibitory potency.
(§4) Inhibitory effects of selected AVR compounds in comparison to that of MIA602 are presented as inhibitory potency (e.g., percentage of inhibition). […] The cell lines tested including lung cancer HCC827 (FIG. 2A), pancreatic cancer CFPAC-1 (FIG. 2B), stomach cancer N87 (FIG. 2C), colon cancer HT-29 (FIG. 2D), breast cancers MX-1 and HCC1806 (FIGS. 2 E, F). Based on the results of cell proliferation assay after cancer cells were treated with antagonist at concentration of 5 μM for 72H, the relative inhibitory potency of AVR antagonists in comparison to MIA-602 is summarized in Table 3 A and B. Over 60 AVR compounds were tested in 12 cancer cell lines.

[2] = target: T1, membrane GHRH-receptors on human anterior pituitary cells (Homo sapiens, UniProt Q02643); test: Receptor binding, displacement of 125I-[His1,Nle27]-hGH-RH(1-32)NH2 on human pituitary membranes
T1 construct: Human pituitary was purchased from the National Hormone and Peptide Program; tissue National Hormone and Peptide Program; host or cells: human pituitary (membrane fractions)
T1 sequence (Q02643 23-423): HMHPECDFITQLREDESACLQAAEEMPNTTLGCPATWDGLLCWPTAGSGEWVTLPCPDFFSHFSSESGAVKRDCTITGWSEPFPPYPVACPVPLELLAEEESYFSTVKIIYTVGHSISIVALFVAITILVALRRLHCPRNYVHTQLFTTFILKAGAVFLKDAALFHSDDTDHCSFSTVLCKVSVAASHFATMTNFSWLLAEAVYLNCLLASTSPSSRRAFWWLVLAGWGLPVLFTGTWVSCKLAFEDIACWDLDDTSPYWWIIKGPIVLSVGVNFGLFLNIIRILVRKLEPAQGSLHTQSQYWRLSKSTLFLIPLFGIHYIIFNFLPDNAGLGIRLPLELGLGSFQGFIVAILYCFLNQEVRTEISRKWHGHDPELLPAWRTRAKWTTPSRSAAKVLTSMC
Procedure: Receptor binding affinities in vitro. Preparation of human pituitary membrane fractions and receptor binding of analogs of GH-RH were performed (Halmos G, Rekasi Z, Szoke B, Schally A V. (1993) Receptor 3:87-97). Human pituitary was purchased from the National Hormone and Peptide Program. […] Relative affinities compared to hGH-RH(1-29)NH2 were calculated as the ratio of IC50 (dose causing 50% inhibition of specific binding to receptors) of the tested peptides to the IC50 of hGH-RH(1-29)NH2. The values were calculated from technical duplicate tubes.
Nineteen new AVR analogs of GHRH were tested in the receptor binding assay. Table 6 presents the IC50 values of GHRH antagonists to membrane GHRH-receptors binding on human anterior pituitary cells.

[3] = tested on: CFPAC-1 pancreatic cancer cells; test: In vitro cell viability, CFPAC-1; assay type: cell-based, human; details: antagonist 5 μM for 72 h, cell proliferation assay; MIA602 = 1
Procedure: as §1, §2, §3, §4
(§5) Based on the results of cell proliferation assay after cancer cells were treated with antagonist at concentration of 5 µM for 72H, * at concentration of 2 µM for 72 H.

HCC827 lung cancer cells = test: In vitro cell viability, HCC827; assay type: cell-based, human; details: antagonist 5 μM for 72 h, cell proliferation assay; MIA602 = 1
Procedure: as §1, §2, §3, §4, §5

Row | pIC50 ([2]; membrane receptors on human anterior pituitary cells, mean of two to three determinations, read-out: IC50) | Compound | relative inhibitory potency in comparison to MIA-602, Stomach KATOIII [1] | pIC50 [2] | relative inhibitory potency in comparison to MIA-602, Pancreatic CFPAC-1 [3] | relative inhibitory potency in comparison to MIA-602, Lung IICC827 (HCC827 lung cancer cells) | binding affinity to membrane receptors of human pituitary cells (in words) ([2]; competitive binding, human pituitary membrane fractions)
1 | – | CCCC[C@H](NC(=O)[C@@H](NC(=O)[C@H](CC(=O)O)NC(=O)[C@H](CCC(N)=O)NC(=O)[C@H](CC(C)C)NC(=O)[C@H](CC(C)C)NC(=O)[C@H](CCCCN)NC(=O)[C@H](CCCNC(=N)N)NC(=O)[C@H](C)NC(=O)[C@H](CO)NC(=O)[C@H](CC(C)C)NC(=O)[C@H](CCC(N)=O)NC(=O)[C@H](CC)NC(=O)[C@H](CC(C)C)NC(=O)[C@@H](NC(=O)[C@H](CCCCN)NC(=O)[C@H](CCCNC(=N)N)NC(=O)[C@H](Cc1ccc(OC)cc1)NC(=O)[C@H](CCCCNC(=N)N)NC(=O)[C@H](CC(N)=O)NC(=O)[C@@H](NC(=O)[C@H](Cc1ccc(Cl)cc1)NC(=O)[C@@H](NC(=O)[C@H](C)NC(=O)[C@H](CC(=O)O)NC(=O)[C@@H](CCCNC(=N)N)NC(=O)[C@H](Cc1ccc(O)cc1)NC(=O)CCCCCCCCCCCNC(=O)Cc1ccccc1)[C@@H](C)CC)[C@@H](C)O)C(C)C)[C@@H](C)CC)C(=O)N[C@H](CCCNC(=N)N)C(=O)N[C@@H](CCCCNC(=N)N)C(=O)NCCCCCCCC(=O)NC [AVR-321, PhAC-Ada-Tyr-DArg-Asp-Ala-Ile-Cpa-Thr-Asn-Har-Tyr(Me)-Arg-Lys-Val-Leu-Abu-Gln-Leu-Ser-Ala-Arg-Lys-Leu-Leu-Gln-Asp-Ile-Nle-DArg-Har-Aoc-NHCH3] ({PhAc-12Ado}-Y[dR]DAI[Phe(4-Cl)]TN[hArg]Y(Me)RKVL[Abu]QLSARKLLQDI[Nle][dR][hArg][Aoc]-NHMe) | 1.414 | 9.64 | – | – | –
2 | – | CCCC[C@H](NC(=O)[C@@H](NC(=O)[C@H](CC(=O)O)NC(=O)[C@H](CCC(N)=O)NC(=O)[C@H](CC(C)C)NC(=O)[C@H](CC(C)C)NC(=O)[C@H](CCCN)NC(=O)[C@H](Cc1c[nH]cn1)NC(=O)[C@H](C)NC(=O)[C@H](CO)NC(=O)[C@H](CC(C)C)NC(=O)[C@H](CCC(N)=O)NC(=O)[C@H](CC)NC(=O)[C@H](CC(C)C)NC(=O)[C@@H](NC(=O)[C@H](CCCN)NC(=O)[C@H](Cc1c[nH]cn1)NC(=O)[C@H](Cc1c(F)c(F)c(F)c(F)c1F)NC(=O)[C@H](CCCCNC(=N)N)NC(=O)[C@H](C)NC(=O)[C@@H](NC(=O)[C@H](Cc1ccc(Cl)cc1)NC(=O)[C@@H](NC(=O)[C@H](C)NC(=O)[C@H](CC(=O)O)NC(=O)[C@@H](CCCNC(=N)N)NC(=O)[C@H](Cc1ccc(O)cc1)NC(=O)CCCCCCCCCCCNC(=O)Cc1c(F)c(F)c(F)c(F)c1F)[C@@H](C)CC)[C@@H](C)O)C(C)C)[C@@H](C)CC)C(=O)N[C@H](CCCNC(=N)N)C(=O)N[C@@H](CCCCNC(=N)N)C(=O)NC [AVR-542, 5FPhAC-Ada-Tyr-DArg-Asp-Ala-Ile-Cpa-Thr-Ala-Har-5FPhe-His-Orn-Val-Leu-Abu-Gln-Leu-Ser-Ala-His-Orn-Leu-Leu-Gln-Asp-Ile-Nle-DArg-Har-NHCH3] ({Phenylacetyl(2,3,4,5,6-F5)-12Ado}-Y[dR]DAI[Phe(4-Cl)]TA[hArg][Phe(F5)]H[Orn]VL[Abu]QLSAH[Orn]LLQDI[Nle][dR][hArg]-NHMe) | – | – | 1.312 | 2.649 | –
3 | 9.77 | CCCC[C@H](NC(=O)[C@@H](NC(=O)[C@H](CC(=O)O)NC(=O)[C@H](CCC(N)=O)NC(=O)[C@H](CC(C)C)NC(=O)[C@H](CC(C)C)NC(=O)[C@H](CCCN)NC(=O)[C@H](Cc1c[nH]cn1)NC(=O)[C@H](C)NC(=O)[C@H](CO)NC(=O)[C@H](CC(C)C)NC(=O)[C@H](CCC(N)=O)NC(=O)[C@H](CC)NC(=O)[C@H](CC(C)C)NC(=O)[C@@H](NC(=O)[C@H](CCCN)NC(=O)[C@H](Cc1c[nH]cn1)NC(=O)[C@H](Cc1c(F)c(F)c(F)c(F)c1F)NC(=O)[C@H](CCCCNC(=N)N)NC(=O)[C@H](C)NC(=O)[C@@H](NC(=O)[C@H](Cc1ccc(Cl)cc1)NC(=O)[C@@H](NC(=O)[C@H](C)NC(=O)[C@H](CC(=O)O)NC(=O)[C@@H](CCCNC(=N)N)NC(=O)[C@H](Cc1ccc(O)cc1)NC(=O)CCCCCCCCCCCNC(=O)Cc1c(F)c(F)c(F)c(F)c1F)[C@@H](C)CC)[C@@H](C)O)C(C)C)[C@@H](C)CC)C(=O)N[C@H](CCCNC(=N)N)C(=O)N[C@@H](CCCCNC(=N)N)C(=O)NCCCCCCCCCCCC(N)=O [AVR-552, 5FPhAC-Ada-Tyr-DArg-Asp-Ala-Ile-Cpa-Thr-Ala-Har-5FPhe-His-Orn-Val-Leu-Abu-Gln-Leu-Ser-Ala-His-Orn-Leu-Leu-Gln-Asp-Ile-Nle-DArg-Har-Ada-NH2] ({Phenylacetyl(2,3,4,5,6-F5)-12Ado}-Y[dR]DAI[Phe(4-Cl)]TA[hArg][Phe(F5)]H[Orn]VL[Abu]QLSAH[Orn]LLQDI[Nle][dR][hArg][12Ado]-NH2) | – | – | 1.57 | 4.376 | higher binding affinity in comparison to MIA-602; also recorded: highest binding affinities
4 | – | CCCC[C@H](NC(=O)[C@@H](NC(=O)[C@H](CC(=O)O)NC(=O)[C@H](CCC(N)=O)NC(=O)[C@H](CC(C)C)NC(=O)[C@H](CC(C)C)NC(=O)[C@H](CCCN)NC(=O)[C@H](Cc1c[nH]cn1)NC(=O)[C@H](C)NC(=O)[C@H](CO)NC(=O)[C@H](CC(C)C)NC(=O)[C@H](CCC(N)=O)NC(=O)[C@H](CC)NC(=O)[C@H](CC(C)C)NC(=O)[C@@H](NC(=O)[C@H](CCCN)NC(=O)[C@H](Cc1c[nH]cn1)NC(=O)[C@H](Cc1c(F)c(F)c(F)c(F)c1F)NC(=O)[C@H](CCCCNC(=N)N)NC(=O)[C@H](C)NC(=O)[C@@H](NC(=O)[C@H](Cc1ccc(Cl)cc1)NC(=O)[C@@H](NC(=O)[C@H](C)NC(=O)[C@H](CC(=O)O)NC(=O)[C@@H](CCCNC(=N)N)NC(=O)[C@H](Cc1ccc(O)cc1)NC(=O)CCCCCCCCCCCNC(=O)Cc1ccccc1)[C@@H](C)CC)[C@@H](C)O)C(C)C)[C@@H](C)CC)C(=O)N[C@H](CCCNC(=N)N)C(=O)N[C@@H](CCCCNC(=N)N)C(N)=O [MIA-690, reference compound] ({PhAc-12Ado}-Y[dR]DAI[Phe(4-Cl)]TA[hArg][Phe(F5)]H[Orn]VL[Abu]QLSAH[Orn]LLQDI[Nle][dR][hArg]-NH2) | – | 9.28 | – | – | –
